Reference: US11512073B2, “Benzimidazole derivatives, pharmaceutical composition comprising the same, and use thereof” (Chongqing University of Arts and Sciences, priority 2020, dated 2022)

Legend:
HEK293T cells = assay: HA-ubiquitin immunoprecipitation, H2A/H2AX ubiquitination; type: cell-based; settings: 20 μM compound 7a for 24 h
Experimental: FIG. 6A: MDA-MB-231 and MDA-MB-468 were treated with indicated concentrations of compound 7a for 48 h, and then the immunofluorescence analysis was performed to detect γH2AX signal, the histone H2AX phosphorylation representing DSBs. Scale bar: 100 μm. FIG. 6B: γH2AX positive cells in (FIG. 6A) were counted and presented in the histogram. FIGS. 6C and 6D: following treatment with different concentrations (FIG. 6C) and times (FIG. 6D) of compound 7a, treated cell were lysed and phosphorylation/activation levels of ATM, NBS1, SMC1, γH2AX were examined by western blotting. Additionally, RNF8 and DNA repair proteins such as BRCA2 and RAD51 were detected using western. β-tubulin was employed as a loading control. […] P62 signal was measured by immunofluorescence analysis. […] HA-Ub was immunoprecipitated with HA binding beads and ubiquitinated H2A/H2AX was detected with anti-H2A/H2AX. […]
MDA-MB-231 and MDA-MB-468 cells were treated with the compound 7a (0, 5, 10 and 20 μmol/L) for 48 h, total protein was extracted using RIPA buffer (Beyotime, Shanghai, China) supplemented with protease/phosphatase inhibitor cocktail (Roche, Mannheim, Germany) at 4° C. for 30 min. The protein concentration was quantified by the BCA protein assay kit (Beyotime). […] The objective protein signal was obtained using an odyssey two-color infrared fluorescence imaging system (Li-cor, NE, USA). […]

TNBC cells = assay: Cell counting assay with microscope; type: cell-based, Human; settings: 48 h
Experimental: FIG. 2A: cell viability was measured with the MTT assay. MDA-MB-231 and MDA-MB-468 cells were exposed to the indicated concentrations of compound 7a for 24, 48 and 72 h. FIGS. 2B and 2C: cell morphology and cell count of MDA-MB-231 and MDA-MB-468 cells were captured with microscope after treating with the indicated concentrations of compound 7a for 48 h. These cells were visualized with the images and quantitated by histogram, Scale bar, 100 μm. FIGS. 2D and 2E: colony formation assay was performed to evaluate TNBC growth in vitro after treatment with the indicated concentrations of compound 7a for 14 days. The colonies were visualized with the images and quantitated by histogram.

HCT116 cells = assay: mCherry-GFP-LC3B reporter autophagic flux assay; type: cell-based; settings: 12 h treatment, versus control
Experimental: Mcherry-EGFP-LC3B overexpression system was co-transfected with lenviral packaging vectors pSPAX2 and pMD2G into HEK293FT cells using Fugene Transfection Reagent (Promega, MW, USA). Virus particles were collected after 48 h infection, filtered through a 0.22 μm membrane, added into colorectal cancer cell HCT116, and then incubated for 12 h at 37° C. The medium was replaced and HCT116 cells were selected for puromycin tolerance (10 μg/mL) to obtain the stable cells expressing mcherry-EGFP-LC3B.

[1] = test system: MDA-MB-231 and MDA-MB-468 cells; assay: Mitochondrial membrane potential (JC-1) assay; type: cell-based, Human; settings: 20 μM/L, 48 h
Experimental: The JC-1 Assay Kit (Beyotime) was used to monitor the alteration of mitochondrial membrane potential as the manufacturer's instructions. MDA-MB-231 and MDA-MB-468 cells were seeded in six-well plates with an appropriate density (2×10^5/mL) and then treated with compound 7a at various concentrations (0, 5, 10, 20 μM) for 48 h. Then 100 μL of JC-1 staining solution was added into 1 mL of medium and incubated for 20 min at cell incubator. The BD Accuri™ C6 flow cytometry was used to analyze the samples. Each experiment was carried out in triplicate, and the results were expressed as the mean±SD.

[2] = test system: MDA-MB-231 and MDA-MB-468 cells; assay: Immunoblotting of cell cycle, apoptosis, autophagy and DDR proteins; type: cell-based, Human
Experimental: MDA-MB-231 and MDA-MB-468 cells were treated with the compound 7a (0, 5, 10 and 20 μmol/L) for 48 h, total protein was extracted using RIPA buffer (Beyotime, Shanghai, China) supplemented with protease/phosphatase inhibitor cocktail (Roche, Mannheim, Germany) at 4° C. for 30 min. The protein concentration was quantified by the BCA protein assay kit (Beyotime). Protein samples (50 μg) were separated by SDS-PAGE with appropriate gel concentration and subsequent electrophoretically transferred onto PVDF membranes (Millipore Corporation, MA, USA). After blocking with 5% BSA for 2 h at ambient temperature, the membranes sections were incubated gently with the indicated primary antibodies overnight at 4° C. and washed with TBST for 5×5 minutes. Subsequently, the membranes were then incubated with corresponding IRDye 800CW goat anti-mouse IgG (H+L) or IRDye 680LT donkey anti-rabbit IgG (H+L) secondary antibody for 1 h. The objective protein signal was obtained using an odyssey two-color infrared fluorescence imaging system (Li-cor, NE, USA). For immunoprecipitation, harvested cells were lysed in ice-cold NP-40 buffer including 50 mM Tris-HCl (pH 7.4), 150 mM NaCl, 0.5% NP-40, 1 mM Na3VO4, 50 mM NaF and protease inhibitor cocktail (Roche). Lysate was centrifuged at 12,000×g for 20 min at 4° C. The supernatant was incubated with anti-HA at 4° C. overnight, followed by incubation with Protein-A/G beads overnight (Beyotime). The proteins were washed six times with ice-cold NP-40 buffer and eluted with SDS loading buffer containing mercaptoethanol by boiling for 10 min.

Structure (SMILES): O=C(NC1CCCCC1)c1[nH]cnc1-c1nc2ccccc2[nH]1 [Compound 7a]
- formation of H2A poly-ubiquitin chains (HEK293T cells): significantly reduced
- proliferation by cell count (TNBC cells): significantly inhibited proliferation of TNBC cells
- number of yellow fluorescent vesicles (autophagosomes) (HCT116 cells): significant increase in the number of yellow fluorescent vesicles
- cells with reduced mitochondrial membrane potential [1]: ~50%
- p62 level ([2]; TNBC cells): resulted in a p62 accumulation
- expression of BRCA2, RAD51 and RNF8 ([2]; immunoblotting): significantly reduced
- levels of BRCA2 and RAD51 ([2]; immunoblotting): dramatically decreased levels of both proteins in a dose-dependent manner
- phosphorylation of ATM, NBS1 and SMC1 ([2]; immunoblotting): activated
- p62 in nuclear and cytoplasmic proteins ([2]; immunoblotting of fractions): drastic p62 increase in the nucleus and cytoplasm in a dose-dependent manner
- P21 and phosphorylation levels of CHK1 (Serine 345) and CHK2 (Threonine 68) ([2]; immunoblotting, 48 h): increased P21 and the phosphorylation levels of CHK1 (Serine 345) and CHK2 (Threonine 68) in a dose-dependent manner
- anti-apoptotic protein Bcl-2 ([2]; immunoblotting, 48 h): decrease of anti-apoptotic protein Bcl-2
- cytochrome c, cleaved caspase-3, cleaved caspase-9 and cleaved PARP ([2]; immunoblotting, 48 h): increased in a dose-dependent manner
- levels of Cyclin A, Cyclin B, CDK1 and CDK2 ([2]; immunoblotting, 48 h): decreased the levels of Cyclin A, Cyclin B, CDK1 and CDK2
- pro-apoptotic proteins Bak, Bim and Bax ([2]; immunoblotting, 48 h): elevated in a dose-dependent manner
- γH2AX level ([2]; immunoblotting, dose-dependent): significantly increased
- conversion to LC3B-II ([2]; immunofluorescence and western blotting, dose- and time-dependent): significantly induced
